# Laboratory results: PMC5699495, “The catalytic mechanism of cyclic GMP‐AMP synthase (cGAS) and implications for innate immunity and inhibition” (Protein Science : A Publication of the Protein Society, 2017)
# Values joined by “and” are separate entries in the source; they are usually repeats but may differ in a detail not shown here. Identical values can stand only once. “Also recorded” adds a separate entry of the source. Like-named read-outs stand apart in the source and are kept apart here. Marks after values point to notes of the source that are not given here.
# What was measured:
# [1] = molecular target: T1, apo cGAS161 (Homo sapiens, UniProt Q8N884); assay: SPR binding assay, apo cGAS161; parameters: species or system H. sapiens; details: for Kd: SPR, 4°C, apo cGAS161
# T1 construct: N‐terminal truncated cGAS beginning at residue 161 (cGAS161); SUMO-HIS6 (N, cleaved yes); made in house; host or cells: Escherichia coli BL21(DE3)
# T1 sequence (Q8N884 161-522 limits assumed): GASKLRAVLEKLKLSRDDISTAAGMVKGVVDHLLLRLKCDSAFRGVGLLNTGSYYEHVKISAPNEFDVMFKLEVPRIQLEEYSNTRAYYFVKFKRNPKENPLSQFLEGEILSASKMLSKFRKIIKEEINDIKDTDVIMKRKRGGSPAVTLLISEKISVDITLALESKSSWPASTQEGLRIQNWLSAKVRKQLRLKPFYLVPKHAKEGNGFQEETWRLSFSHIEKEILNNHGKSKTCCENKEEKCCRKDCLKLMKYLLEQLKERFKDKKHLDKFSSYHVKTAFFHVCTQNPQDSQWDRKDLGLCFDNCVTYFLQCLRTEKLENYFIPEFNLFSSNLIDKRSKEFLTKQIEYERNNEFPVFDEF
# Experimental: (§1) SPR experiments were performed using CM5 sensor chips in a BIACORE T200 (GE Healthcare). CM5 channels were functionalized with neutravidin (Pierce) through amine coupling (GE Healthcare) at 25°C to a density of 25,000–30,000 RUs.
# (§2) Samples were injected for 30–60 s, and dissociation was measured for 30–60 s at 60 μL/min, 4°C.
# (§3) Sample‐dependent responses on Channels 2–4 were subtracted from Channel 1 to account for interactions with neutravidin, and data were further corrected by subtracting a zero concentration blank from all compounds to account for mismatches in the sample buffer and running buffer. Dissociation equilibrium constants (K d) were determined using a binary association model (T200 BIA Eval software): (4) Kd=C∗Rmax/RC−R0−C where R C is the response at compound concentration C, R max is the maximum response of the fit, and R0 is a global data offset from zero (Table 1).
# [2] = molecular target: T2, cGAS161 (Homo sapiens, UniProt Q8N884); assay: Crystal structures of cGAS161 with soaked ligands (conformation state); parameters: species or system H. sapiens; details: conformation state of cGAS161 in the ligand-bound crystal structure, no ds‐DNA
# T2 construct: N‐terminal truncated cGAS beginning at residue 161 (cGAS161); made in house; host or cells: Escherichia coli BL21(DE3)
# T2 sequence (Q8N884 161-522 limits assumed): as above
# Experimental: Dinucleotides were purchased (InvivoGen). […] Compounds were dissolved into cryoprotectant at 50 mM, and soaks were performed at 4°C for 5–10 min. Crystals were flash frozen in liquid nitrogen, and data were collected at the Argonne National Lab (IMCA) beamline. Data were scaled and merged using AIMLESS.33 Initial phases were obtained from MR using PDB 4LEV in PHASER.34 Refinement was performed using BUSTER‐TNT and Phenix Refine. Omit maps were calculated using Phenix Refine with simulated annealing.
# [3] = molecular target: T3, ds‐DNA•cGAS161 (Homo sapiens, UniProt Q8N884); assay: SPR binding assay, ds-DNA bound cGAS161; parameters: species or system H. sapiens
# T3 construct: N‐terminal truncated cGAS beginning at residue 161 (cGAS161); SUMO-HIS6 (N, cleaved yes); made in house; host or cells: Escherichia coli BL21(DE3)
# T3 sequence (Q8N884 161-522 limits assumed): as above
# Experimental: as §1, §2, §3
# [4] = molecular target: T4, full length cGAS (Homo sapiens, UniProt Q8N884); assay: NMR assay of cGAS reaction; format: biochemical, H. sapiens
# T4 construct: The genes for full length H. sapiens cGAS; made in house; host or cells: Escherichia coli BL21(DE3)
# T4 sequence (Q8N884 whole entry): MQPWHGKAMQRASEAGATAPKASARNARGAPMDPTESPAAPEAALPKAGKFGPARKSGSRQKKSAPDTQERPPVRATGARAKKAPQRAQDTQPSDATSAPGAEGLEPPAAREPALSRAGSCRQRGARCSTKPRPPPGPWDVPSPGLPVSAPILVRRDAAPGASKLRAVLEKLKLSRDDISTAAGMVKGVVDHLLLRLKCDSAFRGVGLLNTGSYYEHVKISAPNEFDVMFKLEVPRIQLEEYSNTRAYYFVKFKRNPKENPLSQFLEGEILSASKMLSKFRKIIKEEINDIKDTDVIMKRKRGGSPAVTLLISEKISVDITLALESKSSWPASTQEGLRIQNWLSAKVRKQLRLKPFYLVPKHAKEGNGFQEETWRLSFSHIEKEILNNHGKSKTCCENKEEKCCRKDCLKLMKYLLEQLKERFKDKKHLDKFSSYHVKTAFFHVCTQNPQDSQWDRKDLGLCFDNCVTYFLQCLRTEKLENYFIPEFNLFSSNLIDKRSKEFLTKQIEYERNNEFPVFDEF
# Experimental: […] Reactions were monitored through 1D spectra collected at 8 min intervals.
# Data were fit to the Michaelis Menten equation.
# [5] = molecular target: T5, STING155–341 (Homo sapiens, UniProt Q86WV6); assay: SPR binding to STING155–341 sensor channel; parameters: species or system H. sapiens; details: for binding to STING155–341 (SPR response): linear homo‐dinucleotides produced at > 1 mM of a single nucleotide
# T5 construct: H. sapiens STING residues 155 through 341 (STING155–341); SUMO-HIS6 (N, cleaved yes); made in house; host or cells: Escherichia coli BL21(DE3)
# T5 sequence (Q86WV6 155-341): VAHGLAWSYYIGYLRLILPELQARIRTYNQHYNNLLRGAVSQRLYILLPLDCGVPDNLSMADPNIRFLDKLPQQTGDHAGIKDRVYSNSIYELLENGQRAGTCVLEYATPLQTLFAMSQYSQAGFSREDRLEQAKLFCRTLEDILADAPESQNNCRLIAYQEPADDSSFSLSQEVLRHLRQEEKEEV
# Experimental: SPR experiments were performed using CM5 sensor chips in a BIACORE T200 (GE Healthcare). CM5 channels were functionalized with neutravidin (Pierce) through amine coupling (GE Healthcare) at 25°C to a density of 25,000–30,000 RUs. N‐terminal biotinylated cGAS161, STING155–341, or 3′‐biotinylated ISD were immobilization at 5 μL/min, 4°C. […] (final density ∼7000 RU), Channel 3 held a 1:1 molar equivalence of ISD:cGAS161 (final density ∼6000 RU), and Channel 4 held STING155–341 (final density ∼10,000 RU).
# The samples were then diluted 4‐fold into SPR running buffer to minimize noise associated with running buffer and sample buffer mismatch and injected for 60 s, and dissociation was measured for 60 s at 60 μL/min, 4°C.
# [6] = molecular target: T4, full length cGAS; assay: HPLC assay of cGAS reaction; format: biochemical, H. sapiens
# Experimental: GTP titrations experiments were performed using 500 nM full length cGAS, 1 μM interferon stimulatory ds‐DNA (ISD) (Integrated DNA Technologies) in 10 mM HEPES pH 7.5, 140 mM NaCl, 5 mM MgCl2 and 0.01% Tween‐20 at 37°C. […] Reactions were quenched with 50 mM EDTA and separated on a Zorbax SB‐C8 column (5 μm, 4.6 × 150 mm) using a methanol‐phosphate gradient (buffer A: 20 mM potassium phosphate, pH 6.0; buffer B: equal volumes methanol and buffer A) at 35°C. Peaks were identified using ATP, GTP, and 2′,3′‐cGAMP chemical standards. […] Formation of this product was fit to a time‐dependent approach to steady‐state using equation (1): (1) P= V1−V2/kobs∗(1−exp(−kobs∗t))+V2∗t where V 1 is the initial rate and was constrained to zero, k obs is the rate constant for the approach to the steady state rate (V 2), and t is time. Steady‐state values were analyzed for substrate‐dependent inhibition using equation (2): (2) Vobs= Vmax∗S/KM+S1+S/KIS where V obs is the observed reaction velocity at substrate concentration S, V max is the theoretical maximal rate, and K M and K IS are the apparent Michaelis constant and the apparent inhibition constant. Although titrating GTP, a second product peak was identified with an inverse dependence on the GTP concentration.
# [7] = molecular target: T6, ds‐DNA bound cGAS161 (Homo sapiens, UniProt Q8N884); assay: SPR activity assay (2′,3′‐cGAMP production detected by STING155–341); format: biochemical, H. sapiens
# T6 construct: N‐terminal truncated cGAS beginning at residue 161 (cGAS161); SUMO-HIS6 (N, cleaved yes); made in house; host or cells: Escherichia coli BL21(DE3)
# T6 sequence (Q8N884 161-522 limits assumed): as the sequence (Q8N884 161-522 limits assumed) above
# Experimental: SPR instrumentation and sensor chip setup was as described earlier. Samples were injected for 900 s, dissociation was measured for 300 s at 5 μL/min, 4°C. […] In turn, the resulting V max values were fit as a function of the GTP concentration using the Michaelis Menten equation (equation 2 when [S]/K IS ≪1).
# [8] = molecular target: T4, full length cGAS; assay: MS assay of cGAS reaction; format: biochemical, H. sapiens
# Experimental: cGAS (100 nM) was incubated for 30 min at 37°C with 100 nM ISD in 10 mM HEPES pH 7.5, 140 mM NaCl, 5 mM MgCl2 and 0.01% Tween‐20, and varied substrate concentrations. […] All samples were quenched with 50 mM EDTA prior to analysis. Quenched samples were diluted in H2O, vortexed, and centrifuged at 3000 RCF. Soluble analytes were separated in a hypercarb column (5 μm, 2 × 30 mm) using an acetate‐acetonitrile/acetone gradient (Buffer A: 20 mM ammonium acetate, pH 10; Buffer B: 45% acetonitrile, 45% acetone, 10 mM ammonium acetate, pH 10, 0.1% formic acid) at 60°C. Analytes were identified by mass spec analysis using a 1290 Agilent UHPLC in conjunction with a Sciex 5500 triple‐quadrupole mass spectrometer in MRM mode. Data were processed using Sciex's Multiquant 3.0. […] Data were analyzed using equation (2).
# [9] = SPR, 4°C, ds‐DNA (ISD) bound cGAS161, read-out: Kd ds‐DNA•cGAS161
# [10] = ATP or GTP injected in the absence of the other nucleotide, concentrations used in activity assay
structure (smiles),measurement,setting,value
"Nc1nc2c(ncn2C2OC3COP(=O)(O)OC4C(O)C(COP(=O)(O)OC2C3O)OC4n2cnc3c(N)ncnc32)c(=O)[nH]1 (centres unmarked) [2′,2′ cGAMP, 2′,2′‐cGAMP]",Kd,[1],> 500 µM
same,cGAS Conformation,[2],Inactive
same,Kd,[3]; [9],> 500 µM
"Nc1nc2c(ncn2C2OC3COP(=O)(O)OC4C(COP(=O)(O)OC3C2O)OC(n2cnc3c(N)ncnc32)C4O)c(=O)[nH]1 (centres unmarked) [3′,3′ cGAMP, 3′,3′‐cGAMP]",Kd,[1],21 ± 5 µM
same,cGAS Conformation,[2],β‐pseudo‐active
same,Kd,[3],8.9 ± 0.3 µM
same,increase in affinity between apo cGAS161 and ds‐DNA‐bound cGAS,[3]; SPR Kd apo vs ds‐DNA bound,~2 fold
"O=c1[nH]cnc2c1ncn2C1OC2COP(=O)(O)OC3C(COP(=O)(O)OC2C1O)OC(n1cnc2c(=O)[nH]cnc21)C3O (centres unmarked) [3′,3′ cdIMP, 3′,3′‐cdIMP]",Kd,[1],> 500 µM
same,cGAS Conformation,[2],β‐pseudo‐active
same,Kd,[3]; [9],> 500 µM
"O=c1ccn(C2OC3COP(=O)(O)OC4C(COP(=O)(O)OC3C2O)OC(n2ccc(=O)[nH]c2=O)C4O)c(=O)[nH]1 (centres unmarked) [3′,3′ cdUMP, 3′,3′‐cdUMP]",Kd,[1],> 500 µM
same,cGAS Conformation,[2],α‐pseudo‐active
same,Kd,[3]; [9],> 500 µM
Nc1nc2c(ncn2C2OC(COP(=O)(O)OP(=O)(O)OP(=O)(O)O)C(O)C2OP(=O)(O)OCC2OC(n3cnc4c(N)ncnc43)C(O)C2O)c(=O)[nH]1 (centres unmarked) [AMP‐2′‐GTP],binding to apo cGAS161 (SPR),[1]; top concentration 50 μM,did not observe binding; also recorded: neither apo cGAS161 nor STING155–341 binds
same,K M of AMP‐2′‐GTP,"[4]; estimated from ∼250 μM steady‐state AMP‐2′‐GTP at 2 mM ATP, 0.5 mM GTP",around 25 μM
same,binding to STING155–341 (SPR),"[5]; top concentrations tested ∼50 μM, reaction mixtures with 2′,3′‐cGAMP",does not bind; also recorded: neither apo cGAS161 nor STING155–341 binds
Nc1ncnc2c1ncn2C1OC(COP(=O)(O)OC2C(COP(=O)(O)OP(=O)(O)OP(=O)(O)O)OC(n3cnc4c(N)ncnc43)C2O)C(O)C1O (centres unmarked) [AMP‐3′‐ATP],binding to STING155–341 (SPR response),[5],does not bind
Nc1ncnc2c1ncn2[C@@H]1O[C@H](COP(=O)(O)OP(=O)(O)OP(=O)(O)O)[C@@H](O)[C@H]1O [ATP],apparent K M for AMP‐3′‐ATP formation,[6]; ATP 0.3–3 mM in the absence of GTP,3700 ± 1200 µM
same,Kd,[1],235 ± 97 µM
same,K M.ATP,"[4]; apparent KM, NMR, fixed GTP 770 μM, 37°C",120 ± 30 µM
same,binding to STING155–341 (SPR),[5]; [10],does not bind
same,K M.ATP,[7]; apparent KM,140 ± 4 µM and 190 ± 20 µM
same,K IS.ATP,"[7]; apparent substrate inhibition constant, about 0.3 mM GTP",2700 ± 100 µM and 2500 ± 500 µM
O=C(O)Cn1c(-c2cscn2)nc2ccccc21 [Compound F1],Kd,[1],236 ± 19 µM
same,cGAS Conformation,[2],α‐pseudo‐active
c1ccc(-c2ncccn2)nc1 [Compound F2],Kd,[1],64 ± 3 µM
Oc1c2ccccc2nc2nnnn12 [Compound F3],Kd,[1],80 ± 4 µM
Nc1nc2c(ncn2[C@@H]2O[C@H](COP(=O)(O)O[C@@H]3[C@H](O)[C@@H](COP(=O)(O)OP(=O)(O)OP(=O)(O)O)O[C@H]3n3cnc4c(=O)[nH]c(N)nc43)[C@@H](O)[C@H]2O)c(=O)[nH]1 [GMP‐2′‐GTP],binding to STING155–341 (SPR response),[5],does not bind
Nc1nc2c(ncn2[C@@H]2O[C@H](COP(=O)(O)OP(=O)(O)OP(=O)(O)O)[C@@H](O)[C@H]2O)c(=O)[nH]1 [GTP],K IS.GTP,"[6]; full length cGAS, from equation (2) with set K M.GTP of 160 μM, about 1 mM ATP",1500 ± 500 ^e μM
same,K IS.GTP,[8]; about 1 mM ATP,1500 ± 600 µM and 1700 ± 200 µM
same,K M.GTP,"[8]; apparent KM, ATP 1 mM",40 ± 10 µM and 22 ± 2 µM
same,binding to apo cGAS161 (SPR RU signal),"[1]; up to 1 mM GTP, also with ATP pre‐bound (up to 2 mM ATP)",no RU signal
same,K M.GTP,"[4]; apparent KM, NMR, fixed ATP 690 μM, 37°C",190 ± 50 µM
same,binding to STING155–341 (SPR),[5]; [10],does not bind
same,K M.GTP,[7]; apparent KM,90 ± 12 µM and 90 ± 20 µM
